How the values were obtained:
[1] = system: patient-derived AML cells; assay: Viability of patient-derived AML cells; format: cell-based, human; details: 10 μM; 2, 4 or 6 days in culture
From the text: Because SHP2 activity is critical for ERK activation, we used phospho-ERK1/2 (p-ERK1/2) as a more direct readout of SHP2 inhibitor efficacy. […] This p-ERK rebound in MOLM-13 cells treated with RMC-4550 is reminiscent of previously reported data from human hepatoma Hep3B cells treated with SHP099 ([34]). We also tested the effects of SBI-4668 or RMC-4550 on two patient-derived AML samples (Fig. 4F).
Patient-derived AML cells were obtained from Carol Burian and Dr James Mason (Scripps MD Anderson Center) under approved Institutional Review Board protocol 13-6180. […] Final peripheral blood mononuclear cells were resuspended in Bambanker serum-free freezing medium (Wako Pure Chemical Industries, Ltd) and stored frozen before cell viability was assessed as described later.
(§1) Viability of AML and esophageal carcinoma cells was assessed using the ATP-depletion assay CellTiter-Glo (Promega). Cells were harvested at 1 × 10^6/ml to 2 × 10^6 cells/ml with cell numbers determined by trypan blue using the Countess Cell counter (Thermo Scientific) and resuspended in culture media. […] Luminescence was read on a Tecan Spark Multimode Microplate Reader, and data were analyzed using GraphPad Prism software.

[2] = system: MDA-MB-468 TNBC cells; assay: 11-day colony formation assay, MDA-MB-468; format: cell-based; details: 5, 10 or 20 μM, 11 days
Procedure: (§2) Inhibition of SHP2 has been reported to inhibit the growth of cancer cells including Kasumi-1 acute myeloid leukemia (AML) and KYSE-520 esophageal cancer cells ([30]). […] Thus, we treated two TNBC cell lines, BT-549 and MDA-MB-468, with SBI-4668 or the SHP2 allosteric inhibitor SHP099 at various concentrations and determined cell viability after 72 h, compared with the vehicle control (Fig. 4C). […] Next, we performed an 11-day colony formation assay with TNBC cells treated with SBI-4668 or SHP099 at 5, 10, or 20 μM (Fig. 4D).
MDA-MB-468 and […] triple-negative breast cancer cells were maintained in Dulbecco's modified Eagle's medium + 10% FBS supplemented with 1× penicillin–streptomycin/L-glutamine (Omega Scientific). About 1500 cells (in 300 μl) were seeded per well of a standard 24-well tissue culture plate (Falcon) and allowed to adhere for 24 h, before the addition of compound(s) as described. After a further 96 h, media were replaced with fresh media containing the same test compounds and concentrations. After 11 days, media were removed, and cells stained with 0.5% crystal violet (in 20% methanol; Sigma) for 20 min with agitation at 80 rpm. Stain was removed, and plates with stained cells were washed by being submerged in excess deionized water and allowed to air dry overnight before imaging.

[3] = system: MV4-11 AML cells; assay: Cell viability (CellTiter-Glo), MV4-11; format: cell-based; details: Homo sapiens, MV4-11, 72 h; 3 days in culture
Procedure: as §2
Viability of AML and esophageal carcinoma cells was assessed using the ATP-depletion assay CellTiter-Glo (Promega). Cells were harvested at 1 × 10^6/ml to 2 × 10^6 cells/ml with cell numbers determined by trypan blue using the Countess Cell counter (Thermo Scientific) and resuspended in culture media. About 3000 cells (in 20 μl) were seeded in a 384-well format white and clear-bottom microplate (catalog no.: 781098; Greiner) spotted with test compound or vehicle control (DMSO) using an Echo 555 Liquid Handler. Cells were incubated for 3 days, before 10 μl of CellTiter-Glo reagent mix was added to each well and incubated for 10 min at RT. Luminescence was read on a Tecan Spark Multimode Microplate Reader, and data were analyzed using GraphPad Prism software.

[4] = system: U-937 AML cells (G60R oncogenic mutation in SHP2); assay: Cell viability (CellTiter-Glo), U-937; format: cell-based; details: Homo sapiens, U-937, 72 h, 3 days, 0.123 to 30 μM
From the text: Oncogenic gain-of-function mutations in SHP2 drive leukemogenesis in a significant number of leukemia patients. However, because of their unique mechanism of action, the existing SHP2 allosteric inhibitors lack activity against the most common SHP2 oncogenic variants. Thus, we tested whether our inhibitors could inhibit the growth of leukemia cells expressing oncogenic SHP2 variants. […] Thus, we tested both SBI-4668 and RMC-4550 on U-937 AML cells, which harbor a G60R oncogenic mutation in SHP2. We treated cells with either SBI-4668 or RMC-4550 at various concentrations, ranging from 0.123 to 30 μM (Fig. 5A). […] We also assessed the effects of SBI-4668 and RMC-4550 on ERK1/2 activation in the SHP2 mutant U-937 cell line. […]
as §1

O=C(Nc1ccccc1)c1cc(-c2ccc(/C=C3\Sc4ccccc4C3=O)o2)ccc1O [SBI-4668, (Z)-2-Hydroxy-5-(5-((3-oxobenzo[b]thiophen-2(3H)-ylidene)methyl)furan-2-yl)-N-phenylbenzamide]
growth of two patient-derived AML samples [1]: inhibited the growth of both AML patient samples
colony formation, MDA-MB-468 [2]: undetectable
IC50 [3]: 8.2 µM
IC50 [4]: 6.3 µM
